Measurements taken from patent US20040258620A1, “(Ethylene)-( propylene)-triaminepentaacetic acid derivatives, process for their production, and their use for the production of pharmaceutical agents” (priority 2001, published 2004).
Several values for one entry are separate records, joined by “and”; a condition that tells them apart may be missing. Equal entries are not always repeated. Blank lines part the entries; values can stand above or below the molecule they belong to.

Tests used:
[1] = 17O NMR on Gd(TRITA-bz-NO2); format: physicochemical; details: for In(1/T1r), reduced longitudinal ^17O relaxation rate / In(1/T2r), reduced transverse ^17O relaxation rate / Δwr, reduced ^17O chemical shift: B = 9.4 Tesla
Text: The rate of water exchange, Kes, has been measured on Gd(TRITA-bz-NO2) by ^17O NMR. The numerical experimental data (reduced transverse and longitudinal ^17O relaxation rates, reduced chemical shifts) measured on a Gd(TRITA-bz-NO2) solution are shown in Table 6.

[2] = Proton relaxivities (1H NMRD profiles) of Gd(EPTPA-bz-NO2); format: physicochemical
Protocol: According to the ^17O chemical shifts, the complex has one inner sphere water molecule. […] The water exchange rate obtained for […]) is in the optimal range to attain high proton relaxivities. This property, together with the high thermodynamic stability, is a unique feature among Gd(III) chelates known so far and it makes […]) an ideal synthon to be attached to any rigid, slowly tumbling macromolecular agent. […] (bottom curve) and 25° C. (top curve).

[3] = Peak-to-peak line widths of the EPR band at 0.34 T; format: physicochemical; parameters: unit not given here
Text: (§1) The Gd(EPTPA-bz-NO2) complex (Formula VII, Z is NO2) has been investigated by ^17O NMR, EPR and ^1H NMRD.

[4] = Variable temperature 17O NMR relaxation rates and chemical shifts of GdEPTPA-bz-NO2; format: physicochemical; details: for ^17O NMR T1 / ^17O NMR T2 / ^17O NMR ν / ^17O NMR chemical shift Δw / ^17O NMR reduced chemical shift Δwr: C = 55.79 mM; for ^17O NMR T1 / ^17O NMR T2 / ^17O NMR ν: pH = 6.0; for ^17O NMR chemical shift Δw / ^17O NMR reduced chemical shift Δwr: pH = 6.0, reference = HClO4
Text: as §1

[5] = Simultaneous analysis of 17O NMR, EPR and NMRD data
Text: The ^17O NMR, NMRD and EPR experimental data (points) and the fitted curves (lines) as obtained in a simultaneous analysis, according to the method of Powell et al., J. Am. Chem. Soc.

[6] = according to the ^17O chemical shifts

In(1/T1r), reduced longitudinal ^17O relaxation rate ([1]; T 273.05 K): 11.42 | In(1/T2r), reduced transverse ^17O relaxation rate ([1]; T 273.05 K): 13.55 | Δwr, reduced ^17O chemical shift ([1]; T 273.05 K): −9.34E+05 Hz | In(1/T1r), reduced longitudinal ^17O relaxation rate ([1]; T 281.75 K): 11.08 | In(1/T2r), reduced transverse ^17O relaxation rate ([1]; T 281.75 K): 13.31 | Δwr, reduced ^17O chemical shift ([1]; T 281.75 K): −9.23E+05 Hz | In(1/T1r), reduced longitudinal ^17O relaxation rate ([1]; T 292.45 K): 10.60 | In(1/T2r), reduced transverse ^17O relaxation rate ([1]; T 292.45 K): 12.96 | Δwr, reduced ^17O chemical shift ([1]; T 292.45 K): −9.15E+05 Hz | In(1/T1r), reduced longitudinal ^17O relaxation rate ([1]; T 302.25 K): 10.44 | In(1/T2r), reduced transverse ^17O relaxation rate ([1]; T 302.25 K): 12.54 | Δwr, reduced ^17O chemical shift ([1]; T 302.25 K): −8.72E+05 Hz | In(1/T1r), reduced longitudinal ^17O relaxation rate ([1]; T 317.25 K): 9.97 | In(1/T2r), reduced transverse ^17O relaxation rate ([1]; T 317.25 K): 12.03 | Δwr, reduced ^17O chemical shift ([1]; T 317.25 K): −8.28E+05 Hz | In(1/T1r), reduced longitudinal ^17O relaxation rate ([1]; T 330.25 K): 9.58 | In(1/T2r), reduced transverse ^17O relaxation rate ([1]; T 330.25 K): 11.56 | Δwr, reduced ^17O chemical shift ([1]; T 330.25 K): −7.07E+05 Hz | In(1/T1r), reduced longitudinal ^17O relaxation rate ([1]; T 349.45 K): 9.14 | In(1/T2r), reduced transverse ^17O relaxation rate ([1]; T 349.45 K): 11.06 | Δwr, reduced ^17O chemical shift ([1]; T 349.45 K): −6.13E+05 Hz | inner sphere water molecules of the complex [1, 6]: 1 | A/ħ ([1]; from ^17O NMR data): −3.5 ± 0.2 10^6 rad s^−1 | ER ([1]; from ^17O NMR data): 5.57 ± 0.406 kcal/mol | τR^298 ([1]; from ^17O NMR data): 223 ± 20 ps
Compound: O=C([O-])CN1CCN(CC(=O)[O-])CCN(CC(=O)[O-])CC(Cc2ccc([N+](=O)[O-])cc2)CN(CC(=O)[O-])CC1.[Gd+3] [Gd(TRITA-bz-NO2)]
water exchange rate Kex^298 [1]: 1.8e+08 s⁻¹ | ΔH^x ([1]; from ^17O NMR data): 6.41 ± 0.19 kcal/mol | ΔS* ([1]; from ^17O NMR data): +3.0 ± 1.0 Jmol^−1K^−1 | water exchange rate, times higher than that measured on Gd(DOTA) ([1]; relative to Gd(DOTA)): over 40 times | kex^298 ([1]; water exchange rate from ^17O NMR data): 180 ± 10 10^6 s^−1

Proton relaxivity ([2]; 24.8° C., proton Larmor frequency 0.022 MHz): 8.54 mM⁻¹ s⁻¹ | Proton relaxivity ([2]; 24.8° C., proton Larmor frequency 0.036 MHz): 8.63 mM⁻¹ s⁻¹ | Proton relaxivity ([2]; 24.8° C., proton Larmor frequency 0.061 MHz): 8.69 mM⁻¹ s⁻¹ | Proton relaxivity ([2]; 24.8° C., proton Larmor frequency 0.101 MHz): 8.34 mM⁻¹ s⁻¹ | Proton relaxivity ([2]; 24.8° C., proton Larmor frequency 0.168 MHz): 8.47 mM⁻¹ s⁻¹ | Proton relaxivity ([2]; 24.8° C., proton Larmor frequency 0.280 MHz): 8.55 mM⁻¹ s⁻¹ | Proton relaxivity ([2]; 24.8° C., proton Larmor frequency 0.467 MHz): 8.21 mM⁻¹ s⁻¹ | Proton relaxivity ([2]; 24.8° C., proton Larmor frequency 0.778 MHz): 8.29 mM⁻¹ s⁻¹ and 8.39 mM⁻¹ s⁻¹ | Proton relaxivity ([2]; 24.8° C., proton Larmor frequency 2.159 MHz): 7.41 mM⁻¹ s⁻¹ | Proton relaxivity ([2]; 24.8° C., proton Larmor frequency 3.598 MHz): 7.23 mM⁻¹ s⁻¹ | Proton relaxivity ([2]; 24.8° C., proton Larmor frequency 5.999 MHz): 6.33 mM⁻¹ s⁻¹ | Proton relaxivity ([2]; 24.8° C., proton Larmor frequency 9.998 MHz): 5.56 mM⁻¹ s⁻¹ | Proton relaxivity ([2]; 24.8° C., proton Larmor frequency 12.001 MHz): 5.47 mM⁻¹ s⁻¹ | Proton relaxivity ([2]; 24.8° C., proton Larmor frequency 14.002 MHz): 5.15 mM⁻¹ s⁻¹ | Proton relaxivity ([2]; 24.8° C., proton Larmor frequency 16.000 MHz): 4.98 mM⁻¹ s⁻¹ | Proton relaxivity ([2]; 24.8° C., proton Larmor frequency 18.002 MHz): 4.91 mM⁻¹ s⁻¹ | Proton relaxivity ([2]; 24.8° C., proton Larmor frequency 20.001 MHz): 4.73 mM⁻¹ s⁻¹ | Proton relaxivity ([2]; 37.3° C., proton Larmor frequency 0.022 MHz): 6.47 mM⁻¹ s⁻¹ | Proton relaxivity ([2]; 37.3° C., proton Larmor frequency 0.036 MHz): 6.56 mM⁻¹ s⁻¹ | Proton relaxivity ([2]; 37.3° C., proton Larmor frequency 0.061 MHz): 6.44 mM⁻¹ s⁻¹ | Proton relaxivity ([2]; 37.3° C., proton Larmor frequency 0.101 MHz): 6.90 mM⁻¹ s⁻¹ | Proton relaxivity ([2]; 37.3° C., proton Larmor frequency 0.168 MHz): 6.55 mM⁻¹ s⁻¹ | Proton relaxivity ([2]; 37.3° C., proton Larmor frequency 0.280 MHz): 6.57 mM⁻¹ s⁻¹ | Proton relaxivity ([2]; 37.3° C., proton Larmor frequency 0.467 MHz): 6.49 mM⁻¹ s⁻¹ | Proton relaxivity ([2]; 37.3° C., proton Larmor frequency 0.778 MHz): 6.19 mM⁻¹ s⁻¹ and 6.36 mM⁻¹ s⁻¹ | Proton relaxivity ([2]; 37.3° C., proton Larmor frequency 2.159 MHz): 5.80 mM⁻¹ s⁻¹ | Proton relaxivity ([2]; 37.3° C., proton Larmor frequency 3.598 MHz): 5.67 mM⁻¹ s⁻¹ | Proton relaxivity ([2]; 37.3° C., proton Larmor frequency 5.999 MHz): 5.21 mM⁻¹ s⁻¹ | Proton relaxivity ([2]; 37.3° C., proton Larmor frequency 9.998 MHz): 4.42 mM⁻¹ s⁻¹ | Proton relaxivity ([2]; 37.3° C., proton Larmor frequency 12.001 MHz): 4.18 mM⁻¹ s⁻¹ | Proton relaxivity ([2]; 37.3° C., proton Larmor frequency 14.002 MHz): 4.20 mM⁻¹ s⁻¹ | Proton relaxivity ([2]; 37.3° C., proton Larmor frequency 16.000 MHz): 4.26 mM⁻¹ s⁻¹ | Proton relaxivity ([2]; 37.3° C., proton Larmor frequency 18.002 MHz): 4.12 mM⁻¹ s⁻¹ | ΔHpp, peak-to-peak line width of the EPR band ([3]; T 3 ° C.): 363.25 | ΔHpp, peak-to-peak line width of the EPR band ([3]; T 23.5 ° C.): 297.4 | ΔHpp, peak-to-peak line width of the EPR band ([3]; T 34.1 ° C.): 286 | ΔHpp, peak-to-peak line width of the EPR band ([3]; T 40.3 ° C.): 280.2 | ΔHpp, peak-to-peak line width of the EPR band ([3]; T 47.6 ° C.): 283.15 | ΔHpp, peak-to-peak line width of the EPR band ([3]; T 56.3 ° C.): 297.4 | ΔHpp, peak-to-peak line width of the EPR band ([3]; T 72.4 ° C.): 326 | ^17O NMR T1 ([4]; T 274.5 K): 0.00301 s | ^17O NMR T2 ([4]; T 274.5 K): 0.00135 s | ^17O NMR ν ([4]; T 274.5 K): −3678.6 Hz | ^17O NMR chemical shift Δw ([4]; T 274.5 K): −133.1 Hz | ^17O NMR reduced chemical shift Δwr ([4]; T 274.5 K): −8.33E+05 Hz | ^17O NMR T1 ([4]; T 286.7 K): 0.00428 s | ^17O NMR T2 ([4]; T 286.7 K): 0.00167 s | ^17O NMR ν ([4]; T 286.7 K): −3686.0 Hz | ^17O NMR chemical shift Δw ([4]; T 286.7 K): −125.36 Hz | ^17O NMR reduced chemical shift Δwr ([4]; T 286.7 K): −7.84E+05 Hz | ^17O NMR T1 ([4]; T 293.5 K): 0.00513 s | ^17O NMR T2 ([4]; T 293.5 K): 0.00198 s | ^17O NMR ν ([4]; T 293.5 K): −3690.4 Hz | ^17O NMR chemical shift Δw ([4]; T 293.5 K): −125.25 Hz | ^17O NMR reduced chemical shift Δwr ([4]; T 293.5 K): −7.84E+05 Hz | ^17O NMR T1 ([4]; T 298.0 K): 0.00599 s | ^17O NMR T2 ([4]; T 298.0 K): 0.00263 s | ^17O NMR ν ([4]; T 298.0 K): −3705.7 Hz | ^17O NMR chemical shift Δw ([4]; T 298.0 K): −123.5 Hz | ^17O NMR reduced chemical shift Δwr ([4]; T 298.0 K): −7.73E+05 Hz | ^17O NMR T1 ([4]; T 306.7 K): 0.00734 s | ^17O NMR T2 ([4]; T 306.7 K): 0.00263 s | ^17O NMR ν ([4]; T 306.7 K): −3702.7 Hz | ^17O NMR chemical shift Δw ([4]; T 306.7 K): −120.4 Hz | ^17O NMR reduced chemical shift Δwr ([4]; T 306.7 K): −7.53E+05 Hz | ^17O NMR T1 ([4]; T 324.2 K): 0.0104 s | ^17O NMR T2 ([4]; T 324.2 K): 0.00425 s | ^17O NMR ν ([4]; T 324.2 K): −3751.5 Hz | ^17O NMR chemical shift Δw ([4]; T 324.2 K): −121.2 Hz | ^17O NMR reduced chemical shift Δwr ([4]; T 324.2 K): −7.58E+05 Hz | ^17O NMR T1 ([4]; T 338.7 K): 0.0137 s | ^17O NMR T2 ([4]; T 338.7 K): 0.00616 s | ^17O NMR ν ([4]; T 338.7 K): −3764.2 Hz | ^17O NMR chemical shift Δw ([4]; T 338.7 K): −99.4 Hz | ^17O NMR reduced chemical shift Δwr ([4]; T 338.7 K): −6.22E+05 Hz | ^17O NMR T1 ([4]; T 359.7 K): 0.0189 s | ^17O NMR T2 ([4]; T 359.7 K): 0.00967 s | ^17O NMR ν ([4]; T 359.7 K): −3803.0 Hz | ^17O NMR chemical shift Δw ([4]; T 359.7 K): −95.8 Hz | ^17O NMR reduced chemical shift Δwr ([4]; T 359.7 K): −5.99E+05 Hz | inner sphere water molecules of the complex [4, 6]: one
Compound: O=C([O-])CN(CCCN(CC(=O)[O-])CC(Cc1ccc([N+](=O)[O-])cc1)N(CC(=O)[O-])CC(=O)[O-])CC(=O)[O-].[Gd+3] (centres unmarked) [Gd(EPTPA-bz-NO2)]
water exchange rate kex^298 [5]: 1.4e+08 s⁻¹ | water exchange rate, times higher than that measured on Gd(DTPA) ([5]; relative to Gd(DTPA)): 40 times
